In US20030113330A1, “Methods for treating pulmonary fibrosis” (priority 1999, published 2003):
Where a SMILES comes first, the peptide text is derived from it. The star is where a group is joined. Cbz = O=C(OCc1ccccc1)*; CH2F = FC*

Experiments:
[1] = test system: primary alveolar epithelial cells (AEC); experiment: Bleomycin-induced apoptosis of primary AEC in vitro
Experimental: Lung Cell Isolation and Detection of Apoptosis In Vitro. Primary alveolar epithelial cells (AEC) were isolated from adult male Wistar rats as described above. The primary cells were studied at day two of culture, a time at which they are type II cell-like by accepted morphologic and biochemical criteria, see Paine et al., Am. J. Physiol. […] All cells were seeded in 24-well or 6-well chambers, and all experiments were conducted at subconfluent densities of 80-90% in serum-free Ham's F12 medium. Test reagents were diluted with Ham's F12 medium and were applied for 20 hours at 37° C. in a 5% CO2 incubator.
Detection of apoptotic cells with propidium iodide (PI) was conducted as described above, following digestion of ethanol-fixed cells with DNAse-free RNAse in PBS containing 5 ug/ml PI.
Apoptosis was detected as described above.

adult male Wistar rats = details: for lung lesions, histology / total lung collagens by hydroxyproline assay: 14 days post-bleomycin
Experimental: Adult male Wistar rats were given intratracheal instillations of 8 U/kg bleomycin sulfate (BLEO) or sterile saline. […] Lung fibrosis was assessed by picrosirius red (PR) quantitation of lung collagen and by hydroxyproline (HP) assay at 14 days after BLEO administration. At the same time point, fragmented DNA in lung epithelial cells was detected by in situ end labeling (ISEL).
Animals and Induction of Pulmonary Fibrosis. Forty adult male Wistar rats, 175-200 grams, were divided into four groups; three groups received a single intratracheal instillation of 8 units per kilogram of bleomycin sulfate (BLEO) in sterile saline. Two days before the administration of BLEO, one group received captopril in the drinking water at a concentration of 500 mg/liter. […] Control animals (NORM) received administrations of the vehicles only.
Immediately before sacrifice, animals were given intraperitoneal injections of sodium pentobarbital and the trachea was cannulated. The middle right lobe was ligated at the hilus, was excised distal to the ligation and was immediately frozen in liquid N2 for hydroxyproline assay of total collagen (see below). The remaining lung tissues were carefully removed and were instilled with 4% paraformaldehyde in PBS at 20 cm H2O constant pressure, then immersed in the same fixative for two hours. The fixed tissues were washed with PBS three times for 15 minutes and were then embedded in paraffin. Five-micron sections of lung were deparaffinized by passing through xylene, xylene:alcohol 1:1, 100% alcohol and 70% alcohol for 10 minutes each. Ethanol was removing by rinsing with distilled water.
In situ end-labeling (ISEL) of fragmented DNA. ISEL was conducted by a modification of the method of Mundle et al., Cell Death and Differentiation, 1: 117-122 (1994). Briefly, ethanol was removed from deparaffinized lung sections by rinsing in distilled water for at least 10 minutes. The slides were then placed in 3% hydrogen peroxide (Sigma Chemical, St. Louis, Mo.) for 30 minutes at 20° C., rinsed with PBS, and incubated with Proteinase K (Sigma Chemical, St. Louis, Mo.) in saline sodium citrate solution (SSC) (0.3 M NaCi and 30 mM sodium citrate in water, pH 7.0) for 15 minutes at 37° C. Samples were rinsed once in water, three times in 0.15 M PBS for 4 minutes each, and then incubated in SSC at 80° C. for 20 minutes. After four rinses in PBS and four rinses in Buffer A (50 mM Tris/HCl, 5 mM MgCl, 10 mM β-mercaptoethanol and 0.005% BSA in water, pH 7.5), the sections were incubated at 18° C. for two hours with ISEL solution (0.001 mM digoxigenin-dUTP, 20 U/ml DNA Polymerase 1 and 0.01 mM each of dATP, dCTP and dGTP in Buffer A). The sections were then rinsed thoroughly five times with Buffer A and three times with PBS. Detection of incorporated dUTP was achieved by incubation for two hours at 37° C. with AP-conjugated anti-digoxigenin (Boerhinger Mannheim, Indianapolis, Ind.) at a 1:400 dilution. Bound AP-antibody complexes were detected with the Fast Blue chromogen system and the sections were mounted with Fluoromount Solution (Southern Biotechnology, Birmingham, Ala.).
Identification of Collagen. Collagens were localized through staining of lung sections by the picrosirius red technique, see Pick et al., Am. J. Pathol. 134:365-371 (1989), which has absolute specificity for collagen. Briefly, sections deparaffinized with xylenes were rehydrated through a descending series of ethanols to distilled water. The hydrated sections were immersed in 0.2% aqueous phosphomolybdic acid for 2 minutes, rinsed in distilled water and then stained for 110 minutes with 0.1% Sirius Red F3BA (Pfal and Bauer, Stamford, Conn.) in saturated aqueous picric acid, pH 2.0. The sections were washed for 2 minutes in 0.01 N HCl, rinsed for 45 seconds in 70% ethanol, dehydrated in three changes of absolute alcohol, cleared in xylene and mounted in a nonaqueous mounting medium.

primary rat AEC = experiment: Angiotensinogen-induced apoptosis in primary rat AEC; assay type: cell-based; details: ANG 5.0 uM; saralasin 50 ug/ml, lisinopril 500 ng/ml
Experimental: Cell Culture. […] J. Physiol. Suppl. […] J. Physiol. […] J. Physiol. […] J. Physiol. Suppl.
Detection of Apoptosis. […] J. Physiol. […] Assay of Annexin V binding by flow cytometry was performed essentially as described for human lung fibroblasts in Uhal, et al., Am. J. Physiol. […] Assay of Caspase-3 activity was performed on viable suspension cultures as reported in Uhal, et al., Am. J. Physiol.
For microscopy, cells were cultured on glass cover slips, incubated with test reagents and fixed with 70% ethanol. The fixed cells were immunolabeled overnight at 4° C. with monoclonal antibodies to cytokeratins 7 and 19 (Chemicon International, Temecula, Calif.), and then for one hour at 37° C. with anti-mouse IgG-rhodamine and DNAse-free RNAse (Boehringer Mannheim, Indianapolis, Ind.) The cover slips were then rinsed in distilled water three times and mounted under Fluoromount Solution (Southern Biotechnology Associates, Birmingham, Ala.) containing 5 ug/ml propidium iodide. Photomicroscopy was performed as described in Uhal, et al., Am. J. Physiol.

SMILES | lung lesions, histology (adult male Wistar rats) | total lung collagens by hydroxyproline assay (adult male Wistar rats) | inhibition of angiotensinogen-induced apoptosis (primary rat AEC) | also measured
COC(=O)C[C@H](NC(=O)[C@H](C)NC(=O)[C@@H](NC(=O)OCc1ccccc1)C(C)C)C(=O)CF [ZVAD-fmk, N-benzylcarboxy-Val-Ala-Asp-[O-Me]-CH2F] (Cbz-Val-Ala-Asp(OMe)-CH2F) | much less extensive | inhibited lung collagen accumulation | – | inhibition of bleomycin-induced apoptosis of AEC in vitro ([1]; bleomycin 50 uM, captopril 500 ng/ml, ZVAD-fmk 60 uM, aurintricarboxylic acid 10 uM): 78%; inhibition of accumulation of lung collagens (adult male Wistar rats; captopril 500 mg/liter drinking water, ZVAD-fmk 1 mg per kg daily i.p., 14 days after BLEO): 85%
CNCC(=O)N[C@@H](CCCN=C(N)N)C(=O)N[C@H](C(=O)N[C@@H](Cc1ccc(O)cc1)C(=O)N[C@H](C(=O)N[C@@H](Cc1cnc[nH]1)C(=O)N1CCC[C@H]1C(=O)N[C@@H](C)C(=O)O)C(C)C)C(C)C [saralasin] | – | – | completely inhibited | –
NCCCC[C@H](N[C@@H](CCc1ccccc1)C(=O)O)C(=O)N1CCC[C@H]1C(=O)O [lisinopril] | – | – | blocked | –
C[C@H](CS)C(=O)N1CCC[C@H]1C(=O)O [captopril] | much less extensive | inhibited lung collagen accumulation | – | inhibition at 0.5 µg/mL ([1]; Rattus norvegicus, Epithelial cell, read-out: inhibition of bleomycin-induced apoptosis of AEC in vitro): 76%; inhibition of ISEL labeling in AEC (adult male Wistar rats; 14 days after BLEO): 99%; inhibition of ISEL labeling in airway epithelial cells (adult male Wistar rats; 14 days after BLEO): 67%
